How the values were obtained:
Assay type in all cases: biochemical
truncated AiSQS = target: T1, truncated AiSQS (Azadirachta indica, UniProt I1Z8B6); experiment: GC-MS of squalene; conditions: 100 μM FPP, 1 mM NADPH; 30 °C, 2 h
T1 construct: gene SQS1; truncated: 15 N-terminal and 63 C-terminal residues deleted (end border uncertain, printed 396 residues and 1176 bp ORF disagree); pET28c, His6 tag; E. coli BL21(DE3); Ni-NTA; ~35 kDa

full length AiSQS = target: T2, full length AiSQS (Azadirachta indica, UniProt I1Z8B6); experiment: GC-MS of squalene; conditions: 100 μM FPP, 1 mM NADPH; 30 °C, 2 h
T2 construct: gene SQS1; full-length, printed as 396 residues from 1176 bp ORF (these disagree), 44 kDa; pRSET-C, His6 tag; E. coli BL21 Star(DE3); glycerol/CHAPS, Ni-NTA
T2 sequence (I1Z8B6 entry or part of it): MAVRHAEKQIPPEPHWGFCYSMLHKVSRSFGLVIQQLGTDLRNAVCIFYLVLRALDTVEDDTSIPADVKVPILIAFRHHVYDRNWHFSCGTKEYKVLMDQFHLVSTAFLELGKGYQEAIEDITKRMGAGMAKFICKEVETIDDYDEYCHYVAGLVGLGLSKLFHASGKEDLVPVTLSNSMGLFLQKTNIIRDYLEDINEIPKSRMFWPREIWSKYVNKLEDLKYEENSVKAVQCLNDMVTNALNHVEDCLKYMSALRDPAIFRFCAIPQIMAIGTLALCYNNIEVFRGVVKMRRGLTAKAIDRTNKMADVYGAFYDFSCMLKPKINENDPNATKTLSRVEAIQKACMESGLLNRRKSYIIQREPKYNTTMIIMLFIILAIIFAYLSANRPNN

AiGDS = target: T3, AiGDS (Azadirachta indica, UniProt A0A088CND2); experiment: GC-MS of geraniol after alkaline phosphatase; conditions: HEPES buffer, 30 °C, 2 h
T3 construct: E. coli; solubilised from inclusion bodies by pH 11 to 7 shift; Ni-NTA; homomeric type; mitochondrial targeting predicted
T3 sequence (A0A088CND2 1-420): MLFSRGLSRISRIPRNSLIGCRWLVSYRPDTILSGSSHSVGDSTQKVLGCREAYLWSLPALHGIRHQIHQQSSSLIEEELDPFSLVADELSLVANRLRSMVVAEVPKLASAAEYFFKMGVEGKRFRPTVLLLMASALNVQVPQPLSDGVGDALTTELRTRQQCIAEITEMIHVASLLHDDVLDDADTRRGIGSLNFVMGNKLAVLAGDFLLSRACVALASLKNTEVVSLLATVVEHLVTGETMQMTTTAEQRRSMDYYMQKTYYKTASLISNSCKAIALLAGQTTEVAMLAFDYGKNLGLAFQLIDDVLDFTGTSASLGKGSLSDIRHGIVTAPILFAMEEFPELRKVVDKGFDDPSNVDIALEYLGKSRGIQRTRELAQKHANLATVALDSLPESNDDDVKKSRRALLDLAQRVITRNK

AiFDS = target: T4, AiFDS (Azadirachta indica, UniProt A0A088CNE3); experiment: GC-MS of (E,E)-farnesol after alkaline phosphatase; conditions: HEPES buffer, 30 °C, 2 h
T4 construct: E. coli BL21(DE3); Ni-NTA
T4 sequence (A0A088CNE3 1-342): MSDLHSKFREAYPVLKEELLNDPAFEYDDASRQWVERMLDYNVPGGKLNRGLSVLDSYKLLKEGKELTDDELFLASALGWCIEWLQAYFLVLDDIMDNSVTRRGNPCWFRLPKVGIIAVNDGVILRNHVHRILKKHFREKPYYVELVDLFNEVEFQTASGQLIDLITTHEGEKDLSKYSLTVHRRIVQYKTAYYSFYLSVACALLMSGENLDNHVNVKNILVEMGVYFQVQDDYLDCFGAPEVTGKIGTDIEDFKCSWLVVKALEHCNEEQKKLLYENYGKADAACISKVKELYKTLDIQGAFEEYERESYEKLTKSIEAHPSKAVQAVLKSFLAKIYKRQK

T1 sequence (I1Z8B6 entry or part of it): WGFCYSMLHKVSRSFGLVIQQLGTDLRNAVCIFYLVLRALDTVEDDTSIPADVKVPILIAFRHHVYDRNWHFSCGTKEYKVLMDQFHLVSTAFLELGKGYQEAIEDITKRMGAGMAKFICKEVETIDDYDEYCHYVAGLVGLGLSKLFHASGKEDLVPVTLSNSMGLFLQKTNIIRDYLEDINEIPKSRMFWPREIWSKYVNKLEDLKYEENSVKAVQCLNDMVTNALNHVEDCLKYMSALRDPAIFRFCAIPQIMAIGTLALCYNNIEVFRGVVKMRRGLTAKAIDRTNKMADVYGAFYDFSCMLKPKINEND

Structure (SMILES)	GC-MS of squalene (truncated AiSQS)	GC-MS of squalene (full length AiSQS)	other results
NC(=O)C1=CN([C@@H]2O[C@H](COP(=O)(O)OP(=O)(O)OC[C@H]3O[C@@H](n4cnc5c(N)ncnc54)[C@H](OP(=O)(O)O)[C@@H]3O)[C@@H](O)[C@H]2O)C=CC1 [NADPH]	full length and truncated AiSQS with FPP in the presence of NADPH	full length and truncated AiSQS with FPP in the presence of NADPH	
CC(C)=CCOP(=O)(O)OP(=O)(O)O [DMAPP]			GC-MS of geraniol after alkaline phosphatase (AiGDS; with IPP, DMAPP 100 μM): Purified recombinant AiGDS was incubated with equimolar concentration of IPP and DMAPP
CC(C)=CCC/C(C)=C/CC/C(C)=C/COP(=O)(O)OP(=O)(O)O [FPP]	full length and truncated AiSQS with FPP in the presence of NADPH	full length and truncated AiSQS with FPP in the presence of NADPH	
CC(C)=CCC/C(C)=C/COP(=O)(O)OP(=O)(O)O [GPP]			GC-MS of (E,E)-farnesol after alkaline phosphatase (AiFDS; with IPP, GPP 100 μM): purified short-chain prenyltransferase was incubated with DMAPP/GPP and IPP followed by treatment with alkaline phosphatase
C=C(C)CCOP(=O)(O)OP(=O)(O)O [IPP]			GC-MS of (E,E)-farnesol after alkaline phosphatase (AiFDS; with DMAPP or GPP, IPP 100-200 μM): purified short-chain prenyltransferase was incubated with DMAPP/GPP and IPP followed by treatment with alkaline phosphatase; GC-MS of geraniol after alkaline phosphatase (AiGDS; with DMAPP, IPP 100-200 μM): Purified recombinant AiGDS was incubated with equimolar concentration of IPP and DMAPP

Source: paper PMC4559364, “Triterpenoid profiling and functional characterization of the initial genes involved in isoprenoid biosynthesis in neem (Azadirachta indica)” (BMC Plant Biology, 2015)
